# Experimental data from patent US10399971B2, “Compound for treating or preventing hyperuricemia or gout” (JIANGSU ATOM BIOSCIENCE AND PHARMACEUTICAL CO., LTD., priority 2015, dated 2019).
# Key:
# Type in all cases: cell-based
# [1] = test system: human normal liver cell line L-02; experiment: Cytotoxicity test on human normal liver cell line L-02 (Alamar Blue); conditions: L02, L-02 cells, 120 h incubation, cell viability, read-out: half inhibitory concentration (IC50) against L-02
# Method: (§1) 2.1 The normal liver cell lines L-02 and WRL-68 were cultured with DMEM culture medium (containing 10% of fetal bovine serum, 100 U/mL of penicillin and 0.1 mg/mL of streptomycin) in an incubator under 5% CO2 at 37° C. until the cell density was about 90%, respectively.
# (§2) 2.3 Tested compounds and benzbromarone at different concentration gradients were prepared by using the DMEM culture medium and added into wells at 100 μL/well as compounds wells. The DMEM culture medium was added into wells at 100 μL/well without tested compound as negative control wells.
# (§3) This 10× Alamar Blue solution was diluted into 1× Alamar Blue solution with phenol red free DMEM culture medium before use.
# (§4) 2.5 The cells were washed with PBS (0.1 M, pH=7.4) twice. The Alamar Blue solution was added into wells at 100 μL/well. 100 μL of Alamar Blue solution was added into wells without cells to serve as blank control wells. The 96-well plate was placed in an incubator under 5% CO2 at 37° C. for 3 h. Each concentration of compound was repeated three times during the test.
# (§5) The fluorescence value of the cells containing compound is the F(test compound); the fluorescence value of the cells without compound as blank control is the F(blank control); the fluorescent value of the cells from negative control group is F(negative control). The average value and standard deviation of cell viability of three repeated concentrations was calculated by the following formula: […]
# (§6) 2.7 The half inhibitory concentration (IC50) of the compound for the cells L-02 and WRL-68 was obtained from the cell viability by Prism Graph software.
# [2] = biological target: T1, hURAT1 (Homo sapiens, UniProt Q96S37); experiment: Inhibition assay of uric acid transport in HEK293-hURAT1 transfection cell line; conditions: 500 nM, HEK293-hURAT1 transfection cell line, 14C-uric acid, average of three tests; for inhibition at 0.5 µM: read-out: Inhibitory rates of uric acid transport, ±SD (%)
# T1 sequence (Q96S37 1-553): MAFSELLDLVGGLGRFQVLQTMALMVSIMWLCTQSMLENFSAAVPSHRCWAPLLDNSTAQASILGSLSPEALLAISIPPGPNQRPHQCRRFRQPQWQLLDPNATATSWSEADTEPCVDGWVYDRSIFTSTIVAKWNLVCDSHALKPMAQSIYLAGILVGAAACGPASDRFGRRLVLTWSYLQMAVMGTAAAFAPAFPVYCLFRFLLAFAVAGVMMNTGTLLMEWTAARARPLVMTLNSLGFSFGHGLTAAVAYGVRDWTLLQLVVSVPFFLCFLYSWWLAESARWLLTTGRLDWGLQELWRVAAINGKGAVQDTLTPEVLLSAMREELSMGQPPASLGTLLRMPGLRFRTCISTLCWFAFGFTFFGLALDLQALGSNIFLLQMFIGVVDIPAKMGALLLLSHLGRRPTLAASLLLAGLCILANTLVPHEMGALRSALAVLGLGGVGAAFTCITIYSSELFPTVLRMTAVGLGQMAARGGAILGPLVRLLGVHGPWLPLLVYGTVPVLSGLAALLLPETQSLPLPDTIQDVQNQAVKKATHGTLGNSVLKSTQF
# Method: 2.1 Construction of a HEK293 stable cell line with high expression of hURAT1: The plasmid pCMV6-hURAT1 was transfected into HEK293 cells, then the stable strain was obtained by the G418 (final concentration 500 μg/mL) resistance screening, which is the high expression of hURAT1 transporter membrane protein.
# 2.2 To a coated 24-well plate was added 200 μL of 0.1 mg/mL poly-lysine per well and the plate was left overnight. Poly-lysine was removed from wells. The wells were cleaned thoroughly with aseptic water and dried for use.
# 2.3 To the above coated 24 well plate was added HEK293-hURAT1 stable cells (2×10^5 cells per well). The cells was cultured at 37° C. under 5% CO2 for 3 days.
# The solution was fully mixed to give HBSS buffer (pH value: 7.4). The buffer was stored at −20° C.
# 2.5 The HBSS buffer was warmed to 37° C. in a water bath. Washed cells with HBSS twice, added 160 μL of HBSS and 20 μL test compound per well. The final concentration of tested compound per well is 500 nM. The blank control well contains only 180 μL of HBSS without tested compound. The plate was placed at room temperature for 30 min.
# 2.6 To each well was added 20 μL of 50 μM ^14C-Uric acid. The plate was placed at room temperature for 20 min.
# 2.7 The solution in each well was removed and the cells in each well were washed with pre-cooled HBSS buffer. To each well was added 0.2 M NaOH to dissolve the cells. The solution containing cell fragments was collected and the right amount of scintillation liquid was added.
# The formula for calculating the inhibitory rate of uric acid transport for compounds was shown as below: […]
# [3] = test system: human normal liver cell line WRL-68; experiment: Cytotoxicity test on human normal liver cell line WRL-68 (Alamar Blue); conditions: WRL68, WRL-68 cells, 120 h incubation, cell viability, read-out: half inhibitory concentration (IC50) against WRL-68
# Method: as §1, §2, §3, §4, §5, §6
SMILES,IC50 [1],inhibition at 0.5 µM [2],IC50 [3],"Inhibitory rates of uric acid transport, ±SD (%) [2]","Inhibitory rates of uric acid transport, ±SD (%) ([2]; 0.5 µM)"
"CCc1nc2ccccn2c1C(=O)c1cc(Br)c(O)c(Br)c1 [Compound 4, (3,5-dibromo-4-hydroxyphenyl)(2-ethylimidazo[1,2-a]-pyridin-3-yl)methanone]",> 100 µM,71.7 ± 1.84%,> 100 µM,–,–
"CCc1nc2ccccn2c1C(=O)c1cc(I)c(O)c(I)c1 [Compound 5, (2-ethylimidazo[1,2-a]pyridine-3-yl)(4-hydroxy-3,5-diiodophenyl)methanone]",> 100 µM,63 ± 3.33%,> 100 µM,–,–
"CCc1nc2ccccn2c1C(=O)c1cc(Cl)c(O)c(I)c1 [Compound 9, (3-chloro-4-hydroxy-5-iodophenyl)(2-ethylimidazo[1,2-a]-pyridin-3-yl)methanone]",> 100 µM,60.6 ± 0.82%,> 100 µM,–,–
"CCc1nc2ccccn2c1C(=O)c1cc(Br)c(O)c(I)c1 [Compound 11, (3-bromo-4-hydroxy-5-iodophenyl)(2-ethylimidazo[1,2-a]-pyridine-3-yl)methanone]",–,63.5 ± 0.95%,–,–,–
"CCc1nc2ccccn2c1C(=O)c1cc(C)c(O)c(I)c1 [Compound 12, (2-ethylimidazo[1,2-a]pyridine-3-yl)(4-hydroxy-3-iodo-5-methylphenyl)methanone]",–,56.24 ± 0.12%,–,–,–
"CCc1nc2ccc(F)cn2c1C(=O)c1cc(Cl)c(O)c(Br)c1 [Compound 18, (3-bromo-5-chloro-4-hydroxyphenyl)(2-ethyl-6-fluoroimidazo[1,2-a]pyridine-3-yl)methanone]",> 100 µM,65.4 ± 0.71%,> 100 µM,–,–
"CCc1nc2ccc(F)cn2c1C(=O)c1cc(Cl)c(O)c(I)c1 [Compound 19, (3-chloro-4-hydroxy-5-iodophenyl)(2-ethyl-6-fluoroimidazo[1,2-a]pyridine-3-yl)methanone]",–,68.8 ± 2.83%,–,–,–
"CCc1nc2ccccn2c1C(=O)c1cc(Br)c(O)c(C(F)(F)F)c1 [Compound 29, (3-bromo-4-hydroxy-5-(trifluoromethyl)phenyl)-(2-ethylimidazo[1,2-a]pyridine-3-yl)methanone]",–,64.35 ± 0.12%,–,–,–
"CCc1nc2ccc(C)cn2c1C(=O)c1cc(Br)c(O)c(Br)c1 [Compound 30, (3,5-dibromo-4-hydroxyphenyl)(2-ethyl-6-methylimidazo[1,2-a]pyridine-3-yl)methanone]",–,68 ± 1.49%,–,–,–
"CCc1nc2ccc(OC)cn2c1C(=O)c1cc(Br)c(O)c(Br)c1 [Compound 33, (3,5-dibromo-4-hydroxyphenyl)(2-ethyl-6-methoxyimidazo[1,2-a]pyridine-3-yl)methanone]",> 100 µM,65.06 ± 0.39%,> 100 µM,–,–
"CCc1nc2ccccn2c1C(=O)c1cc(Br)c(O)c(C#N)c1 [Compound 38, 3-bromo-5-(2-ethylimidazo[1,2-a]pyridine-3-carbonyl)-2-hydroxybenzonitrile]",–,62.4 ± 0.72%,–,–,–
"CCc1nc2ccccn2c1C(=O)c1cc(I)c(O)c(C#N)c1 [Compound 39, 5-(2-ethylimidazo[1,2-a]pyridine-3-carbonyl)-2-hydroxy-3-iodobenzonitrile]",–,64.1 ± 2.25%,–,–,–
"CCCc1nc2ccccn2c1C(=O)c1cc(Br)c(O)c(Br)c1 [Compound 41, (3,5-dibromo-4-hydroxyphenyl)(2-propylimidazo[1,2-a]-pyridine-3-yl)methanone]",–,55.5 ± 1.02%,–,–,–
"CCc1nc2ccccn2c1C(=O)c1cc(Cl)c(O)c(Br)c1 [Compound 45, (3-bromo-5-chloro-4-hydroxyphenyl)(2-ethylimidazo[1,2-a]-pyridin-3-yl)methanone]",> 100 µM,62.9 ± 3.34%,> 100 µM,–,–
"CCc1nc2ccc(F)cn2c1C(=O)c1cc(F)c(O)c(I)c1 [Compound 51, (2-ethyl-6-fluoroimidazo[1,2-a]pyridin-3-yl)(3-fluoro-4-hydroxy-5-iodophenyl)methanone]",> 100 µM,61.3 ± 1.1%,> 100 µM,–,–
"CCc1nc2ccc(O)cn2c1C(=O)c1cc(Br)c(O)c(Br)c1 [Compound 52, (3,5-dibromo-4-hydroxyphenyl)(2-ethyl-6-hydroxyimidazo-[1,2-a]pyridin-3-yl)methanone]",> 100 µM,57.5 ± 3.61%,> 100 µM,–,–
"CCc1nc2cc(C)c(Br)cn2c1C(=O)c1cc(Br)c(O)c(Br)c1 [Compound 56, (6-bromo-2-ethyl-7-methylimidazo[1,2-a]pyridin-3-yl)-(3,5-dibromo-4-hydroxyphenyl)methanone]",> 100 µM,62.8 ± 9.34%,> 100 µM,–,–
"[2H]c1ccc2nc(CC)c(C(=O)c3cc(Br)c(O)c(Br)c3)n2c1 [Compound 69, (6-deuterium-2-ethylimidazo[1,2-a]pyridine-3-yl)(3,5-dibromo-4-hydroxyphenyl)methanone]",–,–,–,71.10 ± 2.50%,–
"CCc1nc2ccccn2c1C(=O)c1cc(I)c(O)c(C#N)c1 [Compound 75, 5-(2-ethylimidazo[1,2-a]pyridine-3-carbonyl)-2-hydroxy-3-iodobenzonitrile hydrogen chloride]",> 100 µM,–,> 100 µM,–,62.58 ± 0.84%
